Reference: EP0391077A1, “O56-alkyl derivatives of aglycone and pseudoaglycones of teicoplanin” (GRUPPO LEPETIT S.p.A., priority 1989, dated 1990)
Counter-ions that a name gives are not always drawn.

Test: physchem
Type: physicochemical
Settings: methylcellosolve:water 4:1, pKMCS
Procedure: The potentiometric determinations reported in the examples are run in Methylcellosolve : water, 4:1 (v/v). An excess of 0.01 N HCl In this solvent mixture was added to the sample and the resulting solution was titrated with 0.01 N NaOH in the same solvent mixture. The pK value obtained under the conditions is reported below as pKMCS, wherein MCS stands for Methylcellosolve.

| pKa | Compound |
| --- | --- |
| 6 | COC(=O)C1NC(=O)C2NC(=O)C(NC(=O)C3NC(=O)C4NC(=O)C(Cc5ccc(c(Cl)c5)Oc5cc3cc(c5OC(CCO)C(=O)O)Oc3ccc(cc3Cl)C2O)NC(=O)C(N)c2ccc(O)c(c2)Oc2cc(O)cc4c2)c2ccc(O)c(c2)-c2c(O)cc(O)cc21 (centres unmarked) [Compound 3, O⁵⁶ -(1-carboxy-3-hydroxypropyl)deglucoteicoplanin methyl ester hydrochloride] |
| 6.4 | COC(=O)C1NC(=O)C2NC(=O)C(NC(=O)C3NC(=O)C4NC(=O)C(Cc5ccc(c(Cl)c5)Oc5cc3cc(c5OCCN3CCCC3)Oc3ccc(cc3Cl)C2O)NC(=O)C(N)c2ccc(O)c(c2)Oc2cc(O)cc4c2)c2ccc(O)c(c2)-c2c(O)cc(O)cc21 (centres unmarked) [Compound 13, O⁵⁶-[2-(1-pyrrolidinyl)-ethyl]deglucoteicoplanin methyl ester dihydrochloride] |
